The IC50 is the concentration needed to halve the response being measured.

The record followed here is US11820756B2, “Bradykinin B2 receptor antagonists” (Pharvaris Netherlands B.V., priority 2017, dated 2023).

This assay deals with T1, human bradykinin B2 receptor (hB2R) (Homo sapiens, UniProt P30411).
T1 sequence (P30411 1-391): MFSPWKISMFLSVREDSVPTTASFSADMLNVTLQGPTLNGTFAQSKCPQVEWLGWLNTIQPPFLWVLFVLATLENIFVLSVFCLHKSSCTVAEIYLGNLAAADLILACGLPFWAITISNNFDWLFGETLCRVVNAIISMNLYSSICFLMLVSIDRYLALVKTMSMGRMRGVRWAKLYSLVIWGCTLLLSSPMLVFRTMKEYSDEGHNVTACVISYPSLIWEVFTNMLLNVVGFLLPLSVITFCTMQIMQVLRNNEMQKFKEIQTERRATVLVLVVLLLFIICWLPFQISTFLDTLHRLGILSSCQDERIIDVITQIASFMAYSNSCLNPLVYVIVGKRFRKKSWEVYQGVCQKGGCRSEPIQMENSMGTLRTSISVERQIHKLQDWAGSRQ
The assay can be described thus: cell-based human bradykinin B2 receptor calcium mobilization (hB2R-CaM) assay. The following applies: HTS041C cells, bradykinin at EC80, calcium mobilization; read-out: IC50-value towards human bradykinin B2 receptor (hB2R). From the text:
The following cell-based human bradykinin B2 receptor calcium mobilization (hB2R-CaM) assay was used to determine the antagonistic activity of compounds selected from the example compounds Nos. 1 to 168 towards human bradykinin B2 receptor (hB2R). The assay is defined herein as a standard in vitro B2 receptor activity assay, which can be used to determine IC50 values of the compounds according to the present invention, e. g. the compounds shown in Examples 1-11.
The antagonistic activity of compounds according to the present invention was investigated with the hB2R-CaM assay using the B2 Bradykinin Receptor Stable Cell Line HTS041C (Eurofins, St. Charles MO) and the FLIPR Calcium 6 Assay Kit (Molecular Devices, Wokingham, UK) according to the instructions of the providers. CaM assay measurements were performed with a Flexstation 3 System (Molecular Devices) which allows the precise addition of compounds (B2R antagonists) and bradykinin (B2R agonist) to the cells and adjacent continuous recording of the time-dependent CaM assay signals.
HTS041C cells were cultured in high glucose DMEM cell culture medium (Lonza) supplemented with 10% heat-inactivated FBS (PAN Biotech), 10 mM HEPES, Penicillin/Streptomycin (200 U/mL, 200 μg/mL), 1× non-essential amino acids (Lonza), and 250 μg/mL G418 (Invivogen) in cell incubator at 37° C. in a 5% CO2 atmosphere.
One day before the CaM assay experiments cells were seeded in 200 μL DMEM cell culture medium with reduced FBS (5%) and without G418 on clear bottom black 96 well plates (ThermoFisher #165305). Cell starvation was carried out by incubation (37° C., 5% CO2) of 70.000 cells/well for 24 h to 28 h. Immediately prior calcium dye-loading the medium was carefully aspirated and cells were washed with Hank's balanced salt solution (HBSS, Gibco) containing Ca^2+, Mg^2+ and 20 mM HEPES, adjusted to pH 7.4 (HBSS+). Calcium Dye Loading of the Cells:
For calcium dye-loading one FLIPR 6 assay aliquot was dissolved in 20 mL HBSS+. 150 μL of the dye loading solution was added to cell plate and incubated for 120 min at 37° C. and 5% CO2. After dye loading the cell plate was immediately transferred to the pre-warmed (37° C.) Flexstation 3 System for CaM assaying.
Freshly prepared compound (B2 receptor antagonists) dilution series (8 pt, n=2) and bradykinin (B2 receptor agonist) solution in non-binding plates (Costar) were transferred to the Flexstation System (source plate) shortly before starting the experiment. Bradykinin was added in EC80 concentration determined in n>3 preliminary experiments with 8 pt concentration response curves (n=8)). CaM assay was executed by Flexstation 3 System starting with recording of calcium-sensitive dye fluorescence in bottom-read Flex modus with ex/em=485 nm/525 nm, cut off(em)=[…]. After 20 s, 50 μL of 4-fold concentrated compound dilutions were added to the cells resulting in a final DMSO (Sigma) concentration of 0.1% in the cell plate. CaM signals were monitored for 80 s after additions for detection of potential agonistic activities. Prior to bradykinin stimulus compound- and vehicle-treated cells were incubated for 25 min at 37° C. within the Flexstation System. Then 50 μL of a 5-fold concentrated bradykinin solution (HBSS+, 0.1% DMSO) was added to trigger CaM signals (Read out: Max-Min values) which were measured for 80 s post bradykinin stimulus.
IC50 determinations were performed by 4 parameter logistic model curve fitting of the 8 pt (n=2) compound concentration response curves using XLFIT (IDBS) software.
Relative IC50 values of the test compounds were determined with the same hB2R-CaM assay as in Example 12.
On the technique in general: A change in cytosolic calcium serves as a functional read-out for many receptors and channels.

Take `Cc1cc(-n2cc(F)cn2)c2cccc(OCc3c(Cl)cc(F)cc3[C@H](C)NC(=O)COC(F)(F)F)c2n1` [Compound 121]: the IC50 is at most 0.05 µM.
For `Cc1cc(-n2nc(C)nc2C)c2cccc(OCc3c(Cl)cc(F)cc3[C@H](C)NC(=O)C(C)(C)O)c2n1` [Compound 138] the value was 0.051 to 0.25 µM.
The figure for `Cc1cc(-n2cc(F)cn2)c2cccc(OCc3c(Cl)cc(F)cc3[C@H](C)NC(=O)[C@H](O)C(C)C)c2n1` [Compound 67] is 0.051 to 0.25 µM.
For `Cc1cc(-c2ncnn2C)c2cccc(OCc3c(Cl)cc(F)cc3[C@H](C)NC(=O)c3ccon3)c2n1` [Compound 122] the value was at most 0.05 µM.
With `Cc1cc(-n2cc(F)cn2)c2cccc(OCc3c(Cl)cc(F)cc3[C@H](C)NC(=O)[C@H]3CCC(=O)N3)c2n1` [Compound 115], the IC50 lay within 0.051 to 0.25 µM.
Turning to `Cc1cc(-n2cc(F)cn2)c2cccc(OCc3c(Cl)cc(F)cc3[C@H](C)NC(=O)[C@H]3COC(=O)N3)c2n1` [Compound 112], the IC50 lay within 0.051 to 0.25 µM.
Turning to `CCc1ncnn1-c1cc(C)nc2c(OCc3c(Cl)cc(F)cc3[C@H](C)NC(=O)COC(F)F)cccc12` [Compound 169], the IC50 was at most 0.05 µM.
For `Cc1cc(-n2cc(F)cn2)c2cccc(OCc3c(Cl)cc(F)cc3[C@H](C)NC(=O)[C@@H]3COC(=O)N3)c2n1` [Compound 111] the value was 0.051 to 0.25 µM; for `Cc1cc(-n2cc(F)cn2)c2cccc(OCc3c(Cl)cc(F)cc3[C@H](C)NC(=O)c3ccccn3)c2n1` [Compound 123], 0.051 to 0.25 µM; for `Cc1cc(-n2cc(F)cn2)c2cccc(OCc3c(Cl)cc(F)cc3[C@H](C)NC(=O)c3cncs3)c2n1` [Compound 90], at most 0.05 µM.
For `[2H][C@@](C)(NC(=O)C(F)F)c1cc(F)cc(Cl)c1COc1cccc2c(-c3ncnn3C)cc(C)nc12` [Compound 183] the value was at most 0.05 µM; for `Cc1cc(-n2cc(F)cn2)c2cccc(OCc3c(Cl)cc(F)cc3[C@H](C)NC(=O)[C@H](O)CN)c2n1` [Compound 3, (R)-3-amino-N—((S)-1-(3-chloro-5-fluoro-2-((4-(4-fluoro-1H-pyrazol-1-yl)-2-methylquinolin-8-yloxy)methyl)phenyl)ethyl)-2-hydroxypropanamide], 0.251 to 1 µM; for `Cc1cc(-c2ccnn2C)c2cccc(OCc3c(Cl)cc(F)cc3[C@H](C)NC(=O)COC(F)F)c2n1` [Compound 175], at most 0.05 µM.
For `Cc1cc(-c2ncnn2C)c2cccc(OCc3c(Cl)cc(F)cc3[C@H](C)NC(=O)C(C)(C)O)c2n1` [Compound 64] the value was at most 0.05 µM; for `Cc1cc(-c2ncnn2C)c2cccc(OCc3c(Cl)cc(F)cc3[C@H](C)NC(=O)C(F)F)c2n1` [Compound 147], at most 0.05 µM.
Consider `Cc1cc(-c2ncnn2C)c2cccc(OCc3c(Cl)cc(F)cc3[C@H](C)NC(=O)COCC3CC3)c2n1` [Compound 117], for which the IC50 was at most 0.05 µM.
On to `Cc1cc(-n2nc(C)nc2C)c2cccc(OCc3c(Cl)cc(F)cc3[C@H](C)NC(=O)COC(F)(F)F)c2n1` [Compound 139], for which the IC50 is at most 0.05 µM.
The figure for `Cc1cc(-n2cc(F)cn2)c2cccc(OCc3c(Cl)cc(F)cc3[C@H](C)N(C)C(=O)[C@H](C)O)c2n1` [Compound 2, (S)—N—((S)-1-(3-chloro-5-fluoro-2-((4-(4-fluoro-1H-pyrazol-1-yl)-2-methylquinolin-8-yloxy)methyl)phenyl)ethyl)-2-hydroxy-N-methylpropanamide] is at most 0.05 µM.
On to `Cc1cc(-c2ncnn2C)c2cccc(OCc3c(Cl)cc(F)cc3[C@H](C)NC(=O)[C@H](C)F)c2n1` [Compound 203], for which the 50% inhibitory concentration (IC50) was at most 0.05 µM.
The figure for `Cc1cc(-c2ncnn2C)c2cccc(OCc3c(Cl)cc(F)cc3[C@H](C)NC(=O)CC(F)(F)F)c2n1` [Compound 177] is at most 0.05 µM; for `Cc1cc(-n2cc(F)cn2)c2cccc(OCc3c(Cl)cc(F)cc3[C@H](C)NC(=O)c3cccnc3)c2n1` [Compound 124] it is at most 0.05 µM.
The figure for `Cc1cc(-c2ncnn2C)c2cccc(OCc3c(Cl)cc(F)cc3[C@H](C)NC(=O)C3CCCCC3)c2n1` [Compound 144] is at most 0.05 µM; for `Cc1cc(-n2cc(F)cn2)c2cccc(OCc3c(Cl)cc(F)cc3[C@H](C)NC(=O)[C@@H](O)CCN)c2n1` [Compound 66] it is 0.051 to 0.25 µM; for `Cc1cc(-n2cc(F)cn2)c2cccc(OCc3c(Cl)cc(F)cc3[C@H](C)NC(=O)[C@@H](O)CCN(C)C)c2n1` [Compound 72] it is 0.251 to 1 µM.
For `CCn1ncnc1-c1cc(C)nc2c(OCc3c(Cl)cc(F)cc3[C@H](C)NC(=O)COC(F)F)cccc12` [Compound 140] the value was at most 0.05 µM; for `Cc1cc(-c2ncnn2C)c2cccc(OCc3c(Cl)cc(F)cc3[C@H](C)NC(=O)[C@@H](C)O)c2n1` [Compound 63], at most 0.05 µM; for `Cc1cc(-n2cc(F)cn2)c2cccc(OCc3c(Cl)cc(F)cc3[C@H](C)NC(=O)[C@@H](O)CN)c2n1` [Compound 21], 0.251 to 1 µM.
Turning to `Cc1cc(-c2ncc(C#N)n2C)c2cccc(OCc3c(Cl)cc(F)cc3[C@H](C)NC(=O)COC(F)F)c2n1` [Compound 205], the IC50 is at most 0.05 µM.
In the case of `Cc1cc(-n2ncnc2C)c2cccc(OCc3c(Cl)cc(F)cc3[C@H](C)NC(=O)c3cocn3)c2n1` [Compound 159], the half-inhibitory concentration (IC50) is at most 0.05 µM.
For `Cc1cc(-c2ncnn2C)c2cccc(OCc3c(Cl)cc(F)cc3[C@H](C)NC(=O)C(C)(F)F)c2n1` [Compound 178] the value was at most 0.05 µM; for `Cc1cc(-n2cc(F)cn2)c2cccc(OCc3c(Cl)cc(F)cc3[C@H](C)NC(=O)c3cc(C)on3)c2n1` [Compound 88], 0.051 to 0.25 µM.
For `CC[C@@H](O)C(=O)N[C@@H](C)c1cc(F)cc(Cl)c1COc1cccc2c(-n3cnc(C)n3)cc(C)nc12` [Compound 100] the value was 0.251 to 1 µM; for `Cc1cc(-c2[nH]ncc2C)c2cccc(OCc3c(Cl)cc(F)cc3[C@H](C)NC(=O)COC(F)F)c2n1` [Compound 185], at most 0.05 µM; for `Cc1cc(-n2cc(F)cn2)c2cccc(OCc3c(Cl)cc(F)cc3[C@H](C)NC(=O)[C@@H]3CCCO3)c2n1` [Compound 14], at most 0.05 µM.
Take `Cc1cc(-n2ncnc2C)c2cccc(OCc3c(Cl)cc(F)cc3[C@H](C)NC(=O)COC(F)(F)F)c2n1` [Compound 161]: the IC50 was at most 0.05 µM.
For `[2H][C@@](C)(NC(=O)c1cocn1)c1cc(F)cc(Cl)c1COc1cccc2c(-n3ncnc3C)cc(C)nc12` [Compound 198] the value was at most 0.05 µM; for `Cc1cc(-n2ncnc2C)c2cccc(OCc3c(Cl)cc(F)cc3[C@H](C)NC(=O)c3ccon3)c2n1` [Compound 157], at most 0.05 µM.
The figure for `Cc1cc(-n2cc(F)cn2)c2cccc(OCc3c(Cl)cc(F)cc3[C@H](C)NC(=O)[C@@](C)(O)C(F)(F)F)c2n1` [Compound 52] is 0.251 to 1 µM; for `Cc1cc(-n2ncnc2C)c2cccc(OCc3c(Cl)cc(F)cc3[C@H](C)NC(=O)c3coc(C)n3)c2n1` [Compound 156] it is at most 0.05 µM; for `[2H]C([2H])([2H])[C@H](NC(=O)c1cocn1)c1cc(F)cc(Cl)c1COc1cccc2c(-c3ncnn3C)cc(C)nc12` [Compound 200] it is at most 0.05 µM.
